{"source": "paper PMC5805504", "about": "(Oncotarget, 2017)", "key": {"ACVR2A": {"molecular_target": "T1, ACVR2A (Homo sapiens, UniProt P27037)", "T1 construct": "purchased DiscoverX", "assay": "KINOMEscan kinase competition binding assay (DiscoverX)", "conditions": "absence of ATP, three-point titration", "description": "(§1) Data are presented as Geomean ± SD."}, "ACVR2B": {"molecular_target": "T2, ACVR2B (Homo sapiens, UniProt Q13705)", "T2 construct": "purchased DiscoverX", "T2 sequence (Q13705 19-512)": "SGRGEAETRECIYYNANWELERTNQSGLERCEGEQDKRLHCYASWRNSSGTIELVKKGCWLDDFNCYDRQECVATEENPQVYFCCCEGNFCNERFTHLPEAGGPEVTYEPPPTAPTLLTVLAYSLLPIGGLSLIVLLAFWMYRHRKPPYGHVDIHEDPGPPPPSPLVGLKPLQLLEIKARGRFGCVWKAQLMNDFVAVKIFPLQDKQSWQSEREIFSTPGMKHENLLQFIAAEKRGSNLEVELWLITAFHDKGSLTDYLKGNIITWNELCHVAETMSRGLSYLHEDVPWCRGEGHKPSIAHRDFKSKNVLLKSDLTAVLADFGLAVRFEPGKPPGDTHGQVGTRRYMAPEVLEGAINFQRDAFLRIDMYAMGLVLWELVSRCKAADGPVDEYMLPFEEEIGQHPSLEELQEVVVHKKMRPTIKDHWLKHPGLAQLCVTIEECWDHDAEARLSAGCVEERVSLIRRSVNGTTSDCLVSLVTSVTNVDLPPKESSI", "assay": "KINOMEscan kinase competition binding assay (DiscoverX)", "conditions": "absence of ATP, three-point titration", "description": "as §1"}, "Abl1": {"molecular_target": "T3, Abl1 (Homo sapiens, UniProt P00519)", "T3 construct": "purchased DiscoverX", "assay": "KINOMEscan kinase competition binding assay (DiscoverX)", "conditions": "absence of ATP, three-point titration", "description": "as §1"}, "Alk1/ACVRL1": {"molecular_target": "T4, Alk1/ACVRL1 (Homo sapiens, UniProt P37023)", "T4 construct": "purchased DiscoverX", "T4 sequence (P37023 22-503)": "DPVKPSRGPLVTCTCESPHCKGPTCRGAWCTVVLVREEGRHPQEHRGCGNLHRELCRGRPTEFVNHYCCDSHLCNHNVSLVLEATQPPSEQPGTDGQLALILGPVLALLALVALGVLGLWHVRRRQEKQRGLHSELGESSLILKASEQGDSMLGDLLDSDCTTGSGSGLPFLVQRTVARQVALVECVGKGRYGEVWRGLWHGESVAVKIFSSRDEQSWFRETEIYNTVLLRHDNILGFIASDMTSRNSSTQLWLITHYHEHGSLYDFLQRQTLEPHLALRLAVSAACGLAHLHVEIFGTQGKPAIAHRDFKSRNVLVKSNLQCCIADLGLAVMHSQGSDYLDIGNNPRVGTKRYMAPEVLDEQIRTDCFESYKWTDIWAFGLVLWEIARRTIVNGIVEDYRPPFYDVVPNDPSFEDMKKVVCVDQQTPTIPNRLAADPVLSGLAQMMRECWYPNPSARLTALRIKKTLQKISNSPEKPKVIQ", "assay": "KINOMEscan kinase competition binding assay (DiscoverX)", "conditions": "absence of ATP, three-point titration", "description": "as §1"}, "Alk2/ACVR1": {"molecular_target": "T5, Alk2/ACVR1 (Homo sapiens, UniProt Q04771)", "T5 construct": "purchased DiscoverX", "T5 sequence (Q04771 21-509)": "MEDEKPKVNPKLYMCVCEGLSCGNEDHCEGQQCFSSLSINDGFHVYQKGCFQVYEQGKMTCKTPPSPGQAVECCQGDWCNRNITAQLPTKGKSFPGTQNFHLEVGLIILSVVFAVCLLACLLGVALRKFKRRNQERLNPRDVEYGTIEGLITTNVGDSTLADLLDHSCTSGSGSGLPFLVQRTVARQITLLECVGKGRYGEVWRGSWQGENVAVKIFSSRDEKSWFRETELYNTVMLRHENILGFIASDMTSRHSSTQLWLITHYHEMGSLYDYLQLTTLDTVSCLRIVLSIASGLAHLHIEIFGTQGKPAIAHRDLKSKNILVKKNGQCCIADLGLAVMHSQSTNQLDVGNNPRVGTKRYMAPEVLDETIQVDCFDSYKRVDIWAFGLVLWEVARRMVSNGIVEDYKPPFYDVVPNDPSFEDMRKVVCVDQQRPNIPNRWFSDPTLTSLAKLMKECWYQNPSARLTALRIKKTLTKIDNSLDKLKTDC", "assay": "KINOMEscan kinase competition binding assay (DiscoverX)", "conditions": "absence of ATP, three-point titration", "description": "as §1"}, "Alk3/BMPR1A": {"molecular_target": "T6, Alk3/BMPR1A (Homo sapiens, UniProt P36894)", "T6 construct": "purchased DiscoverX", "T6 sequence (P36894 24-532)": "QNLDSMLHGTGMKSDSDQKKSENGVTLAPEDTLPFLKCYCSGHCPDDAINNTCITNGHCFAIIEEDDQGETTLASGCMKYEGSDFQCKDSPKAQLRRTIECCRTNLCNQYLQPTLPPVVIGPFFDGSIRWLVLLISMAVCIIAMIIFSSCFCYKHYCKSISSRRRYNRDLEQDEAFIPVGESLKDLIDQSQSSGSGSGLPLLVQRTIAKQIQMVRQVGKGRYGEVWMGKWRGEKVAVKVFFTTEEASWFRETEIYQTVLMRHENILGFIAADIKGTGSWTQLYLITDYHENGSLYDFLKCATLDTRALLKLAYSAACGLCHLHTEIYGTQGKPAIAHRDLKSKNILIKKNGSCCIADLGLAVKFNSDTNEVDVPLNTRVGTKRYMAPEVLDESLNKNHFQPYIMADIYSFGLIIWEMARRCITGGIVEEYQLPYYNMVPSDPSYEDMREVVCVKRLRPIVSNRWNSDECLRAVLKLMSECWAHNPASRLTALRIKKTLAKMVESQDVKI", "assay": "KINOMEscan kinase competition binding assay (DiscoverX)", "conditions": "absence of ATP, three-point titration", "description": "as §1"}, "Alk4/ACVR1B": {"molecular_target": "T7, Alk4/ACVR1B (Homo sapiens, UniProt P36896)", "T7 construct": "purchased DiscoverX", "T7 sequence (P36896 24-505)": "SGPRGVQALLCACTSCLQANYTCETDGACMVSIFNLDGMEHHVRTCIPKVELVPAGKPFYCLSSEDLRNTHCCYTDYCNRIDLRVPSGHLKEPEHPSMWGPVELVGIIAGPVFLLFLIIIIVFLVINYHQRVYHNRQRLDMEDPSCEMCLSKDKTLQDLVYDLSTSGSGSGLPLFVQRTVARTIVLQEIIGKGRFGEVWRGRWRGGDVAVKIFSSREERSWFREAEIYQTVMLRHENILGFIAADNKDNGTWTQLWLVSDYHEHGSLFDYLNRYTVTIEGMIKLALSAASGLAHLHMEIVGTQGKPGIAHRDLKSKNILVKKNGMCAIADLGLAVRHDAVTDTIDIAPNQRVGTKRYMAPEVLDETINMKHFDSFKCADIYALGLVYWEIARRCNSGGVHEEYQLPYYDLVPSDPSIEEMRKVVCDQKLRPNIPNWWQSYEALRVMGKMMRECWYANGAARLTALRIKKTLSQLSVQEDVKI", "assay": "KINOMEscan kinase competition binding assay (DiscoverX)", "conditions": "absence of ATP, three-point titration", "description": "as §1"}, "Alk6/BMPR1": {"molecular_target": "T8, Alk6/BMPR1 (Homo sapiens, UniProt O00238)", "T8 construct": "purchased DiscoverX", "T8 sequence (O00238 14-502)": "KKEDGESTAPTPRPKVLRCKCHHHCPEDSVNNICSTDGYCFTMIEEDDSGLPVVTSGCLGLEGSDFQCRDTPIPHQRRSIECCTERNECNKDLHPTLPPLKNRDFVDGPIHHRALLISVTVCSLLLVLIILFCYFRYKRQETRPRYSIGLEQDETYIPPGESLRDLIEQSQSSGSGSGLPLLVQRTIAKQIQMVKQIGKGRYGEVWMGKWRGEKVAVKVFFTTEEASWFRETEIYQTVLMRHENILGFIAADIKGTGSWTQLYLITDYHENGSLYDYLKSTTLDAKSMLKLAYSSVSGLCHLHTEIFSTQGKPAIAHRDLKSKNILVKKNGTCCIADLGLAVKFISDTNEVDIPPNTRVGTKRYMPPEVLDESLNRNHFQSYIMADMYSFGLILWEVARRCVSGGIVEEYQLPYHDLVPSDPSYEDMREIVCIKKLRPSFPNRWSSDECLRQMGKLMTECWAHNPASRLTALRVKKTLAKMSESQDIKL", "assay": "KINOMEscan kinase competition binding assay (DiscoverX)", "conditions": "absence of ATP, three-point titration", "description": "as §1"}, "BMPR2": {"molecular_target": "T9, BMPR2 (Homo sapiens, UniProt Q13873)", "T9 construct": "purchased DiscoverX", "T9 sequence (Q13873 27-1038)": "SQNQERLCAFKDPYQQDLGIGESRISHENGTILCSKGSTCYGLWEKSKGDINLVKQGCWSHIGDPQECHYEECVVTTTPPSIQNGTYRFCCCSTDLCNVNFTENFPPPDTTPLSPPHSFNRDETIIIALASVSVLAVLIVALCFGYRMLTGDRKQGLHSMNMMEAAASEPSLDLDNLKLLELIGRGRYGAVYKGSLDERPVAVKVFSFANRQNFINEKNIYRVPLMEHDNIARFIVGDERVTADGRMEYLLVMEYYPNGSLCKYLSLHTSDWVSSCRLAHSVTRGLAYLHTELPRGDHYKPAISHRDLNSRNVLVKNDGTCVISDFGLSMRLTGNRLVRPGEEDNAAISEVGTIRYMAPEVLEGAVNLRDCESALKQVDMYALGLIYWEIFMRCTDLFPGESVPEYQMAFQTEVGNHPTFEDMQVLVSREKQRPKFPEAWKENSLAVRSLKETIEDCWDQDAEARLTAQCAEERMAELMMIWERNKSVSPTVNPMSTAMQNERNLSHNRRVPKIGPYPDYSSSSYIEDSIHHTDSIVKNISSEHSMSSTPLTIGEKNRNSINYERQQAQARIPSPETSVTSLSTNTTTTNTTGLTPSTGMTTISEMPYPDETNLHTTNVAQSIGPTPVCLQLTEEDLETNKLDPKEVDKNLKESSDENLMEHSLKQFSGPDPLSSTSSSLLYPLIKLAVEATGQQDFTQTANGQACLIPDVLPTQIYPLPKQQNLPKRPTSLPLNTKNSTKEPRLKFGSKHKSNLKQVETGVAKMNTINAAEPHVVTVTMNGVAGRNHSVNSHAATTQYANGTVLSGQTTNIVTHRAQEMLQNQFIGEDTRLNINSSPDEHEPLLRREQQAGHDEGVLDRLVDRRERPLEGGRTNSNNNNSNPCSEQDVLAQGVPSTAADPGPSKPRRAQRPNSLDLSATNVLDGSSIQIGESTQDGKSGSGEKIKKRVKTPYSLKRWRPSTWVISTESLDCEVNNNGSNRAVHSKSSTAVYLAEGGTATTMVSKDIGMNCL", "assay": "KINOMEscan kinase competition binding assay (DiscoverX)", "conditions": "absence of ATP, three-point titration", "description": "as §1"}, "Braf": {"molecular_target": "T10, Braf (Homo sapiens, UniProt P15056)", "T10 construct": "purchased DiscoverX", "assay": "KINOMEscan kinase competition binding assay (DiscoverX)", "conditions": "absence of ATP, three-point titration", "description": "as §1"}, "CSNK1E1": {"molecular_target": "T11, CSNK1E1 (Homo sapiens, UniProt P49674)", "T11 construct": "purchased DiscoverX", "assay": "KINOMEscan kinase competition binding assay (DiscoverX)", "conditions": "absence of ATP, three-point titration", "description": "as §1"}, "GAK": {"molecular_target": "T12, GAK (Homo sapiens, UniProt O14976)", "T12 construct": "purchased DiscoverX", "assay": "KINOMEscan kinase competition binding assay (DiscoverX)", "conditions": "absence of ATP, three-point titration", "description": "as §1"}, "MINK": {"molecular_target": "T13, MINK (Homo sapiens, UniProt Q8N4C8)", "T13 construct": "purchased DiscoverX", "assay": "KINOMEscan kinase competition binding assay (DiscoverX)", "conditions": "absence of ATP, three-point titration", "description": "as §1"}, "NLK": {"molecular_target": "T14, NLK (Homo sapiens, UniProt Q9UBE8)", "T14 construct": "purchased DiscoverX", "assay": "KINOMEscan kinase competition binding assay (DiscoverX)", "conditions": "absence of ATP, three-point titration", "description": "as §1"}, "RIPK2": {"molecular_target": "T15, RIPK2 (Homo sapiens, UniProt O43353)", "T15 construct": "purchased DiscoverX", "assay": "KINOMEscan kinase competition binding assay (DiscoverX)", "conditions": "absence of ATP, three-point titration", "description": "as §1"}, "RSK4": {"molecular_target": "RSK4 (Homo sapiens, UniProt Q9UK32)", "sequence (Q9UK32 73-330)": "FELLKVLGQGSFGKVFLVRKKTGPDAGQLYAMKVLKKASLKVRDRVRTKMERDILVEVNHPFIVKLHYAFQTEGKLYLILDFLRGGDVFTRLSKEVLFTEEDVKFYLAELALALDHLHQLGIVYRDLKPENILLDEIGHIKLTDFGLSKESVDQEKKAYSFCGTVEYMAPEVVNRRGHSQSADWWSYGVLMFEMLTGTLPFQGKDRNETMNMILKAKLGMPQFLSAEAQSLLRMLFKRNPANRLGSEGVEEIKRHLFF", "assay": "KINOMEscan kinase competition binding assay (DiscoverX)", "conditions": "absence of ATP, three-point titration", "description": "as §1"}, "TGFβR2": {"molecular_target": "T16, TGFβR2 (Homo sapiens, UniProt P37173)", "T16 construct": "purchased DiscoverX", "T16 sequence (P37173 23-567)": "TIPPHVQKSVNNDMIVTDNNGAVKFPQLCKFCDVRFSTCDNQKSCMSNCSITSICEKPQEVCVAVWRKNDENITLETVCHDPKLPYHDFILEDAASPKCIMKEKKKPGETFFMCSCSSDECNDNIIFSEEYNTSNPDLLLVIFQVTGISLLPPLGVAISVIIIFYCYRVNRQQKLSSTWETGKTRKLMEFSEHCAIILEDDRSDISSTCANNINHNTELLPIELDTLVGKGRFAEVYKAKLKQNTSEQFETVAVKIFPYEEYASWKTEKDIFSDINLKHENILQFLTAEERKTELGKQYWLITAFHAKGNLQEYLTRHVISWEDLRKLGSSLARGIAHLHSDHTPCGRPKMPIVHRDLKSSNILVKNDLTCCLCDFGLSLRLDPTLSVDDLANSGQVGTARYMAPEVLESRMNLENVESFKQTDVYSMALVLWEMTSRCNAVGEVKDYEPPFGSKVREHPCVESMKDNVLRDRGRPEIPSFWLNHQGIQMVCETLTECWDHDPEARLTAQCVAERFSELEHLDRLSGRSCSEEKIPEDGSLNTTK", "assay": "KINOMEscan kinase competition binding assay (DiscoverX)", "conditions": "absence of ATP, three-point titration", "description": "as §1"}, "TNIK": {"molecular_target": "T17, TNIK (Homo sapiens, UniProt Q9UKE5)", "T17 construct": "purchased DiscoverX", "assay": "KINOMEscan kinase competition binding assay (DiscoverX)", "conditions": "absence of ATP, three-point titration", "description": "as §1"}, "ZAK": {"molecular_target": "T18, ZAK (Homo sapiens, UniProt Q9NYL2)", "T18 construct": "purchased DiscoverX", "assay": "KINOMEscan kinase competition binding assay (DiscoverX)", "conditions": "absence of ATP, three-point titration", "description": "as §1"}, "[1]": {"tested_on": "TGFβ ligand (SMAD2/3-responsive promoter)", "assay": "Cell based luciferase reporter assay (SMAD2/3), TGFβ-stimulated HEK293_SMAD2/3 cells", "conditions": "Homo sapiens; TGFβ1 2 nM stimulated HEK293_SMAD2/3"}, "[2]": {"tested_on": "BMP ligand (SMAD1/5/8-responsive promoter)", "assay": "Cell based luciferase reporter assay (SMAD1/5/8), BMP4-stimulated HEK293_SMAD1/5/8 cells", "conditions": "Homo sapiens; BMP4 20 nM stimulated HEK293_SMAD1/5/8"}, "KPC-M09 cells": {"tested_on": "KPC-M09 cells", "assay": "E-Cadherin assay / TGFβ1-mediated EMT in KPC-M09 cells", "format": "cell-based, mouse", "conditions": "30 ng/ml TGFβ plus 2 μM or 10 μM, 48 hours", "description": "The primary mouse pancreatic ductal adenocarcinoma (PDAC) cell line KPC-M09 was derived from a pancreatic GEMM [KrasLSL-G12D/+; Trp53LSL-R172H/+; Ptf1aCre/+ (KPC)]. […] Cell morphological changes were imaged at 20X (bright field). Cells were stained with an anti-E-cadherin primary Ab (Cell Signaling, clone 24E10, diluted 1:200) followed with a secondary anti-rabbit Cy3 (Cell Signaling, diluted 1:500). DAPI was used as a counter stain and cells were imaged at 40X."}, "[3]": {"tested_on": "MX1 human xenograft breast cancer model", "assay": "MX1 in vivo xenograft cancer model", "design": "species or system athymic nude mice", "description": "Female athymic nude mice from Charles River weighing 22 to 26 grams were implanted subcutaneously in the flank with 1×10^7 cells in a 1:1 (v/v) mixture in matrigel. […] Tumor volumes and body weight were determined by electronic caliper every 2 to 3 days. Repeat measures analysis was utilized with log transformed data and the auto-regression (AR) method to determine the overall p-value for galunisertib growth curves relative to the vehicle control in both tumor models. […]"}, "[4]": {"tested_on": "4T1 syngenic murine breast cancer model", "assay": "4T1 in vivo syngenic breast cancer model", "design": "species or system BALB/c mice", "description": "Female BALB/c mice from Taconic Farms weighing 20 to 24 grams were acclimated for 1 week prior to study initiation, had ad libitum access to food and were shaved in the implant area prior to the orthotopic injection of 1 × 10^5 4T1 cells into the mammary fat pad in a volume of 20 μL media. Ten animals per group were utilized for tumor measurement and survival endpoints. […] Tumor volumes were determined by electronic caliper every 2 to 3 days. Statistical analysis was performed by repeated measures analysis and Kaplan-Meier analysis."}, "pSMAD in human PBMCs": {"tested_on": "pSMAD in human PBMCs", "design": "method as in PMID 17453744", "conditions": "cited from earlier work"}, "[5]": {"design": "method as in PMID 25424852", "conditions": "patients with glioblastoma; cited from earlier work"}, "[6]": {"conditions": "second line glioblastoma; cited from earlier work"}, "[7]": {"conditions": "patients with myelodysplastic syndrome; cited from earlier work"}, "[8]": {"conditions": "clinical; cited from earlier work"}, "[9]": {"tested_on": "CEREP diversity panel, 65 targets", "assay": "CEREP diversity panel", "conditions": "at 10 μM, duplicate; data not shown"}, "TGFβRII": {"molecular_target": "TGFβRII (Homo sapiens, UniProt P37173)", "sequence (P37173 23-567)": "as above", "assay": "Autophosphorylation kinase assay"}, "[10]": {"conditions": "75 mg/kg twice daily, data not shown"}}, "note": "Values joined by “and” are separate entries in the source; they are usually repeats but may differ in a detail not shown here. Equal entries are not always repeated.", "data": [{"smiles": "Cc1cccc(-c2nn3c(c2-c2ccnc4ccc(C(N)=O)cc24)CCC3)n1.O", "note": "[galunisertib, 4-[2-(6-methylpyridin-2-yl)-5,6-dihydro-4H-pyrrolo[1,2-b]pyrazol-3-yl]quinoline-6-carboxamide monohydrate]", "values": [{"measurement": "IC50", "setting": "ACVR2A", "result": "> 20000", "unit": "nM"}, {"measurement": "IC50", "setting": "ACVR2B", "result": "690 nM and 694 nM"}, {"measurement": "IC50", "setting": "Abl1", "result": 860, "unit": "nM"}, {"measurement": "IC50", "setting": "Alk1/ACVRL1", "result": "> 20000", "unit": "nM"}, {"measurement": "IC50", "setting": "Alk2/ACVR1", "result": "> 20000", "unit": "nM"}, {"measurement": "IC50", "setting": "Alk3/BMPR1A", "result": 16800, "unit": "nM"}, {"measurement": "IC50", "setting": "Alk4/ACVR1B", "result": 80, "unit": "nM"}, {"measurement": "IC50", "setting": "Alk4/ACVR1B; listed as Galunisertib", "result": 77.7, "unit": "nM"}, {"measurement": "IC50", "setting": "Alk6/BMPR1", "result": 470, "unit": "nM"}, {"measurement": "IC50", "setting": "Alk6/BMPR1; listed as Galunisertib", "result": 471, "unit": "nM"}, {"measurement": "IC50", "setting": "BMPR2", "result": "> 60000", "unit": "nM"}, {"measurement": "IC50", "setting": "Braf", "result": 500, "unit": "nM"}, {"measurement": "IC50", "setting": "CSNK1E1", "result": 400, "unit": "nM"}, {"measurement": "IC50", "setting": "GAK", "result": 310, "unit": "nM"}, {"measurement": "IC50", "setting": "MINK", "result": 190, "unit": "nM"}, {"measurement": "IC50", "setting": "NLK", "result": 910, "unit": "nM"}, {"measurement": "IC50", "setting": "RIPK2", "result": 220, "unit": "nM"}, {"measurement": "IC50", "setting": "RSK4", "result": 720, "unit": "nM"}, {"measurement": "IC50", "setting": "TGFβR2", "result": 210, "unit": "nM"}, {"measurement": "IC50", "setting": "TGFβR2; listed as Galunisertib", "result": 208, "unit": "nM"}, {"measurement": "IC50", "setting": "TNIK", "result": 510, "unit": "nM"}, {"measurement": "IC50", "setting": "ZAK", "result": 860, "unit": "nM"}, {"measurement": "IC50", "setting": "[1]", "result": 221, "unit": "nM"}, {"measurement": "IC50", "setting": "[2]", "result": "> 10000", "unit": "nM"}, {"measurement": "TGFβ1-mediated EMT (epithelial morphology, membrane E-cadherin)", "setting": "KPC-M09 cells", "result": "prevented TGFβ1-mediated EMT"}, {"measurement": "tumor growth delay", "setting": "[3]; 75 mg/kg twice daily oral gavage, 1500 mm^3 crossing time, p = 0.014", "result": "10.3 ± 4.3", "unit": "days"}, {"measurement": "body weight", "setting": "[3]; [10]", "result": "No body weight loss"}, {"measurement": "tumor growth delay", "setting": "[4]; 75 mg/kg twice daily oral gavage, 500 mm^3 crossing time, p < 0.01", "result": "13 ± 2.4", "unit": "days"}, {"measurement": "survival advantage", "setting": "[4]; 75 mg/kg twice daily, Kaplan-Meier, p = 0.01", "result": 4.5, "unit": "days"}, {"measurement": "body weight", "setting": "[4]; [10]", "result": "No body weight loss"}, {"measurement": "pSMAD in human PBMCs ex vivo", "setting": "pSMAD in human PBMCs", "result": "inhibit pSMAD"}, {"measurement": "clinical activity, phase I", "setting": "[5]", "result": "promising activity"}, {"measurement": "clinical outcome versus lomustine, phase II", "setting": "[6]", "result": "failed to show improvement over lomustine"}, {"measurement": "clinical activity, phase II", "setting": "[7]", "result": "clinical activity"}, {"measurement": "tolerability as oral cancer therapy", "setting": "[8]", "result": "well-tolerated"}, {"measurement": "inhibition against all 65 targets", "setting": "[9]", "result": "< 25", "unit": "%"}, {"measurement": "IC50", "setting": "TGFβRII", "result": 2000, "unit": "nM"}]}]}
